Holding throughout (format): functional
The subject of experiment [1] is Trichoplusia ni. The experiment can be described thus: Antifeedant activity against third-instar larval stage of Trichoplusia ni (cabbage looper) infested compound-treated leaf assessed as reduction in feeding damage at 167 mg a.i/L after 48 hr by leaf disk assay relative to untreated control. On the set-up: scale not given: the % may be the effect or the level left.

Experiment [2] deals with Plutella xylostella. The experiment can be described thus: Antifeedant activity against third-instar larval stage of Plutella xylostella (diamondback moth) infested compound-treated leaf assessed as reduction in feeding damage at 167 mg a.i/L after 48 hr by leaf disk assay relative to untreated control. Also on record: scale not given: the % may be the effect or the level left.

In experiment [3] the test system is Plutella xylostella. The experiment can be described thus: Antifeedant activity against third-instar larval stage of Plutella xylostella (diamondback moth) infested compound-treated leaf assessed as time required to stop feeding at 167 mg a.i/L after 48 hr by leaf disk assay (reference value: > 2880 min).
For experiment [4], the system named is Trichoplusia ni. The experiment can be described thus: Antifeedant activity against third-instar larval stage of Trichoplusia ni (cabbage looper) infested compound-treated leaf assessed as time required to stop feeding at 167 mg a.i/L after 48 hr by leaf disk assay (reference value: > 2880 min).
Experiment [5] concerns Spodoptera exigua. The experiment can be described thus: Antifeedant activity against third-instar larval stage of Spodoptera exigua infested compound-treated leaf assessed as time required to stop feeding at 167 mg a.i/L after 48 hr by leaf disk assay (reference value: > 2880 min).
Experiment [6] deals with Spodoptera exigua. The experiment can be described thus: Antifeedant activity against third-instar larval stage of Spodoptera exigua infested compound-treated leaf assessed as reduction in feeding damage at 167 mg a.i/L after 48 hr by leaf disk assay relative to untreated control. Also on record: scale not given: the % may be the effect or the level left.
Experiment [7] relates to Helicoverpa zea. The experiment can be described thus: Antifeedant activity against third-instar larval stage of Helicoverpa zea (corn earworm) infested compound-treated leaf assessed as reduction in feeding damage at 167 mg a.i/L after 48 hr by leaf disk assay relative to untreated control. On the set-up: scale not given: the % may be the effect or the level left.
The subject of experiment [8] is Helicoverpa zea. The experiment can be described thus: Antifeedant activity against third-instar larval stage of Helicoverpa zea (corn earworm) infested compound-treated leaf assessed as time required to stop feeding at 167 mg a.i/L after 48 hr by leaf disk assay (reference value: > 2880 min).
Experiment [9] has as its system Trichoplusia ni. The experiment can be described thus: Antifeedant activity against third-instar larval stage of Trichoplusia ni (cabbage looper) infested compound-treated leaf assessed as reduction in feeding damage at 40 mg a.i/L after 48 hr by leaf disk assay relative to untreated control. Also on record: scale not given: the % may be the effect or the level left.

Experiment [10] has as its system Plutella xylostella. The experiment can be described thus: Antifeedant activity against third-instar larval stage of Plutella xylostella (diamondback moth) infested compound-treated leaf assessed as reduction in feeding damage at 40 mg a.i/L after 48 hr by leaf disk assay relative to untreated control. On the set-up: scale not given: the % may be the effect or the level left.

Experiment [11] relates to Plutella xylostella. The experiment can be described thus: Antifeedant activity against third-instar larval stage of Plutella xylostella (diamondback moth) infested compound-treated leaf assessed as time required to stop feeding at 40 mg a.i/L after 48 hr by leaf disk assay (reference value: > 2880 min).
Experiment [12] has as its system Helicoverpa zea. The experiment can be described thus: Antifeedant activity against third-instar larval stage of Helicoverpa zea (corn earworm) infested compound-treated leaf assessed as reduction in feeding damage at 40 mg a.i/L after 48 hr by leaf disk assay relative to untreated control. Also on record: scale not given: the % may be the effect or the level left.

For experiment [13], the system named is Trichoplusia ni. The experiment can be described thus: Antifeedant activity against third-instar larval stage of Trichoplusia ni (cabbage looper) infested compound-treated leaf assessed as time required to stop feeding at 40 mg a.i/L after 48 hr by leaf disk assay (reference value: > 2880 min).
For experiment [14], the system named is Spodoptera exigua. The experiment can be described thus: Antifeedant activity against third-instar larval stage of Spodoptera exigua infested compound-treated leaf assessed as time required to stop feeding at 40 mg a.i/L after 48 hr by leaf disk assay (reference value: > 2880 min).
For experiment [15], the system named is Spodoptera exigua. The experiment can be described thus: Antifeedant activity against third-instar larval stage of Spodoptera exigua infested compound-treated leaf assessed as reduction in feeding damage at 40 mg a.i/L after 48 hr by leaf disk assay relative to untreated control. Also on record: scale not given: the % may be the effect or the level left.

Experiment [16] deals with Helicoverpa zea. The experiment can be described thus: Antifeedant activity against third-instar larval stage of Helicoverpa zea (corn earworm) infested compound-treated leaf assessed as time required to stop feeding at 40 mg a.i/L after 48 hr by leaf disk assay (reference value: > 2880 min).
For experiment [17], the system named is Trichoplusia ni. The experiment can be described thus: Antifeedant activity against third-instar larval stage of Trichoplusia ni (cabbage looper) infested compound-treated leaf assessed as reduction in feeding damage at 244 mg a.i/L after 48 hr by leaf disk assay relative to untreated control. On the set-up: scale not given: the % may be the effect or the level left.

Experiment [18] concerns Plutella xylostella. The experiment can be described thus: Antifeedant activity against third-instar larval stage of Plutella xylostella (diamondback moth) infested compound-treated leaf assessed as reduction in feeding damage at 244 mg a.i/L after 48 hr by leaf disk assay relative to untreated control. Also on record: scale not given: the % may be the effect or the level left.

Experiment [19] deals with Plutella xylostella. The experiment can be described thus: Antifeedant activity against third-instar larval stage of Plutella xylostella (diamondback moth) infested compound-treated leaf assessed as time required to stop feeding at 244 mg a.i/L after 48 hr by leaf disk assay (reference value: > 2880 min).
For experiment [20], the system named is Trichoplusia ni. The experiment can be described thus: Antifeedant activity against third-instar larval stage of Trichoplusia ni (cabbage looper) infested compound-treated leaf assessed as time required to stop feeding at 244 mg a.i/L after 48 hr by leaf disk assay (reference value: > 2880 min).
Experiment [21] concerns Spodoptera exigua. The experiment can be described thus: Antifeedant activity against third-instar larval stage of Spodoptera exigua infested compound-treated leaf assessed as time required to stop feeding at 244 mg a.i/L after 48 hr by leaf disk assay (reference value: > 2880 min).
Experiment [22] relates to Spodoptera exigua. The experiment can be described thus: Antifeedant activity against third-instar larval stage of Spodoptera exigua infested compound-treated leaf assessed as reduction in feeding damage at 244 mg a.i/L after 48 hr by leaf disk assay relative to untreated control. On the set-up: scale not given: the % may be the effect or the level left.
Experiment [23] relates to Helicoverpa zea. The experiment can be described thus: Antifeedant activity against third-instar larval stage of Helicoverpa zea (corn earworm) infested compound-treated leaf assessed as reduction in feeding damage at 244 mg a.i/L after 48 hr by leaf disk assay relative to untreated control. Also on record: scale not given: the % may be the effect or the level left.
The test system of experiment [24] is Helicoverpa zea. The experiment can be described thus: Antifeedant activity against third-instar larval stage of Helicoverpa zea (corn earworm) infested compound-treated leaf assessed as time required to stop feeding at 244 mg a.i/L after 48 hr by leaf disk assay (reference value: > 2880 min).

As for `CNC(=O)c1cc(Cl)cc(C)c1NC(=O)c1cc(Br)nn1-c1ncccc1Cl` [CHLORANTRANILIPROLE], the Activity with Trichoplusia ni [1] is 99.4%; in the experiment with Plutella xylostella [2], 99.4%; in the experiment on Spodoptera exigua [6], 99%; in the experiment on Helicoverpa zea [7] it was 99.2%. The Time with Plutella xylostella [3] worked out at 15.4 min; in the experiment on Trichoplusia ni [4] it was 23.4 min; in the experiment on Spodoptera exigua [5], 25.3 min; in the experiment on Helicoverpa zea [8] it was 20.3 min.
In the case of `CC[C@H](C)C1O[C@]2(C=C[C@@H]1C)C[C@@H]1C[C@@H](C/C=C(\C)[C@@H](O[C@H]3C[C@H](OC)[C@@H](O[C@H]4C[C@H](OC)[C@H](NC)[C@H](C)O4)[C@H](C)O3)[C@@H](C)/C=C/C=C3\CO[C@@H]4[C@H](O)C(C)=C[C@@H](C(=O)O1)[C@]34O)O2.O=C(O)c1ccccc1` (some centres undefined) [EMAMECTIN BENZOATE], the Activity in the experiment on Trichoplusia ni [9] is on record as 95.7%; in the experiment on Plutella xylostella [10], 97.9%; with Helicoverpa zea [12], 93.9%; with Spodoptera exigua [15] it was 92.4%. For the same molecule, the Time worked out at 55.9 min in the experiment with Plutella xylostella [11], 91.9 min in the experiment with Trichoplusia ni [13], 139 min in the experiment with Spodoptera exigua [14] and 151.8 min with Helicoverpa zea [16].
`COC(=O)N(C(=O)N1CO[C@@]2(C(=O)OC)Cc3cc(Cl)ccc3C2=N1)c1ccc(OC(F)(F)F)cc1` [INDOXACARB]: the Activity with Trichoplusia ni [17] came out at 94.8%; in the experiment with Plutella xylostella [18], 96.6%; with Spodoptera exigua [22], 95.4%; with Helicoverpa zea [23] it was 93.4%. Further, the Time with Plutella xylostella [19] is given as 151.6 min; in the experiment on Trichoplusia ni [20], 83.6 min; with Spodoptera exigua [21], 54.2 min; in the experiment with Helicoverpa zea [24] it was 77.2 min.

The values above are taken from ChEMBL document CHEMBL3044623, “Feeding cessation effects of chlorantraniliprole, a new anthranilic diamide insecticide, in comparison with several insecticides in distinct chemical classes and mode-of-action groups” (2009).
